Results as given in article PMC5366925, “Novel 1, 4-dihydropyridines for L-type calcium channel as antagonists for cadmium toxicity” (Scientific Reports, 2017).
In brackets after ≈: the same amount, converted by molar mass.

How the values were obtained:
[1] = test system: A7r5 cells (containing L-type Ca2+ channels); assay: Intracellular Ca2+ measurement (Fluo-4 NW), CaCl2/KCl-induced increase; type: cell-based, rat; conditions: for IC50: Rattus norvegicus, A7r5 cells, 1.5 mM CaCl2 and 50 mM KCl, mean ± SD, unit printed only in abstract, not in Table 2, read-out: Calcium overload-preventing activity (IC50), A7r5; for fold higher activity in A7r5 cells than in SH-SY5Y cells: A7r5 vs SH-SY5Y IC50
Description: (§1) The A7r5 (rat aorta smooth muscle cells) and SH-SY5Y (human neuroblastoma cell line) were obtained from the National Centre for Cell Science, Pune, India. The cells were grown at 37.5 °C in a humidified atmosphere with 5% CO2/95% air in Dulbecco’s modified Eagle medium (DMEM), restraining 2 mM of glutamine and supplemented with 10% fetal bovine serum. Once a week the cells were passaged using 0.25% trypsin, 0.53 mM EDTA (Ethylene diamine tetra acetic acid) solution and grown in […] plastic culture flasks until confluence.
(§2) In the experiment, SH-SY5Y cells were plated in 96-well plates at a density of 30,000 cells per well and incubated for 24 h. A7r5 cells were seeded into 96-well plates at a density of 10,000 cells per well and incubated for 72 h. the intracellular [Ca^2+]i concentration changes were studied using the Fluo-4 NW Calcium Assay Kit (Invitrogen, Sweden), as per the manufacturer’s instructions. Both SH-SY5Y and A7r5 cells were loaded with […] for 45 min. Then, the cells were pre-incubated in the dark for 15 min with the tested compounds at concentrations from […]. The compounds were dissolved in distilled water. Application of carbachol (100 nM) to Fura-4 loaded SH-SY5Y cells was used to stimulate changes in the intracellular [Ca^2+]i concentration, whereas A7r5 cells were treated with 1.5 mM CaCl2 and KCl (50 mM) for 5 min to induce an increase in the [Ca^2+] ion concentration. The intracellular [Ca^2+] ion concentration was measured using the fluorescence spectrophotometer’s (Thermo Ascient, Hyderabad) settings appropriate for an excitation at 494 nm and an emission at 516 nm. Amlodipine was used as the positive control. IC50 values as mean ± SD were calculated using Graph Pad Prism 5.0 software.

[2] = test system: SH-SY5Y cells (containing L- and N-type Ca2+ channels); assay: Intracellular Ca2+ measurement (Fluo-4 NW), carbachol-induced increase; type: cell-based; conditions: Homo sapiens, carbachol 100 nM, mean ± SD, unit printed only in abstract, not in Table 2, read-out: Calcium overload-preventing activity (IC50), SH-SY5Y
Description: as §1, §2

[3] = test system: mitochondrial functioning; assay: Effect on mitochondrial functioning; conditions: at concentrations close to those demonstrating L-type calcium channel blocking activity
A7r5 cells = assay: Cadmium cytotoxicity study (LDH release); type: cell-based, rat; conditions: for fold decrease in cell lethality (ratio of LC50 vs CdCl2 alone): then CdCl2 for 4 h
Description: The A7r5 cell line was obtained from National Center for Cell Sciences, Pune, India. The cells were grown in Dulbecco’s Modified Eagles Medium (DMEM) supplemented with 5% fetal bovine serum at 37 °C in an atmosphere of 90% air/10% CO2. For determinations of cell viability, A7r5 cells were removed from stock flasks by mild digestion with trypsin-EDTA solution and the stock cultures were developed in 25 cm^2 culture flasks and all trials were done in 96 micro titer plates. After plating, the cells were allowed to grow to confluence for 7–10 days before use.
The rat aorta smooth muscle A7r5 cells received one of the four treatments following overnight incubation. The first group received CdCl2 at 1, 10, 20, 30, 40, 50 μM prepared in complete culture for 4 h incubation. The second group received pretreatment with 200 μM AD for 1 h followed by the addition of 1, 10, 20, 30, 40, 50 μM CdCl2 for 4 h incubation. The third group received pretreatment with 200 μM compound 5a for 1 h followed by the addition of 1, 10, 20, 30, 40, 50 μM CdCl2 for 4 h incubation. The fourth group received pretreatment with 200 μM compound 5a for 1 h followed by the addition of 1, 10, 20, 30, 40, 50 μM CdCl2 for 4 h incubation. The CdCl2 different concentrations used in this test were chosen based on preliminary studies to identify concentrations which ranged from producing no effects to cytolethality. A short term exposure (4 h) was chosen to evaluate the effects of metallothionein induction. The cell viability was assessed by measurement of (Lactate Dehydrogenase) LDH released into the medium. LDH release was expressed as a percent of the maximum after lysis of cells with TritonX-100.

| SMILES | IC50 [1] | IC50 [2] | effect on mitochondrial functioning [3] | fold higher activity in A7r5 cells than in SH-SY5Y cells [1] | fold decrease in cell lethality (ratio of LC50 vs CdCl2 alone) (A7r5 cells; 200 μM for 1 h pretreatment) | loss of cell viability ablated by pretreatment (A7r5 cells; 200 μM for 1 h pretreatment, 20 μM CdCl2) | effect on LDH leakage (A7r5 cells; 1 h pretreatment with 200 μM, compound alone) | CC50 (A7r5 cells; 4 h exposure, CdCl2 alone, read-out: LC50 (CdCl2 induced cell death)) |
| --- | --- | --- | --- | --- | --- | --- | --- | --- |
| CCOC(=O)NCCOCC1=C(C(=O)OCC)C(c2ccccc2Cl)C(C(=O)OC)=CN1 (centres unmarked) [3d] | 4.25 ± 0.25 µg/mL (≈ 9.1 µM) | 14 ± 0.39 µg/mL (≈ 30 µM) | – | – | – | – | – | – |
| CCOC(=O)C1=C(COCCNC(=O)OCC(C)C)NC=C(C(=O)OC)C1c1ccccc1Cl (centres unmarked) [3e] | 8.35 ± 0.52 µg/mL (≈ 16.9 µM) | 40 ± 0.43 µg/mL (≈ 80.8 µM) | – | – | – | – | – | – |
| CCOC(=O)C1=C(COCCNS(=O)(=O)c2ccc([N+](=O)[O-])cc2)NC=C(C(=O)OC)C1c1ccccc1Cl (centres unmarked) [5a] | 0.18 ± 0.02 µg/mL (≈ 0.31 µM) | 8 ± 0.23 µg/mL (≈ 13.8 µM) | did not affect mitochondrial functioning | at least 10 fold | 2.5 fold | – | – | – |
| CCOC(=O)C1=C(COCCNS(=O)(=O)c2ccc(Br)cc2)NC=C(C(=O)OC)C1c1ccccc1Cl (centres unmarked) [5b] | 0.52 ± 0.48 µg/mL (≈ 0.847 µM) | 20 ± 0.52 µg/mL (≈ 32.6 µM) | – | – | – | – | – | – |
| CCOC(=O)C1=C(COCCNS(=O)(=O)c2ccc(Cl)c([N+](=O)[O-])c2)NC=C(C(=O)OC)C1c1ccccc1Cl (centres unmarked) [5c] | 0.43 ± 0.52 µg/mL (≈ 0.7 µM) | 15 ± 0.53 µg/mL (≈ 24.4 µM) | – | – | – | – | – | – |
| CCOC(=O)C1=C(COCCNS(=O)(=O)c2ccc(F)cc2)NC=C(C(=O)OC)C1c1ccccc1Cl (centres unmarked) [5d] | 0.59 ± 0.61 µg/mL (≈ 1.07 µM) | 21 ± 0.49 µg/mL (≈ 38 µM) | – | – | – | – | – | – |
| CCOC(=O)C1=C(COCCNS(=O)(=O)C(F)(F)F)NC=C(C(=O)OC)C1c1ccccc1Cl (centres unmarked) [5e] | 0.25 ± 0.63 µg/mL (≈ 0.474 µM) | 10 ± 0.18 µg/mL (≈ 19 µM) | did not affect mitochondrial functioning | at least 10 fold | 2.3 fold | – | – | – |
| CCOC(=O)C1=C(COCCN)NC(C)=C(C(=O)OC)C1c1ccccc1Cl (centres unmarked) [Amlodipine, reference compound] | 0.45 ± 0.52 µg/mL (≈ 1.1 µM) | 11 ± 0.61 µg/mL (≈ 26.9 µM) | – | – | 2.0 fold | 75% | did not affect LDH leakage | – |
| [Cl][Cd][Cl] [CdCl2] | – | – | – | – | – | – | – | 30.2 ± 0.82 µM |
